From patent US20090291083A1, “BARB4 TARGET, ANTIBODY DESIGNATED BARB4, BARB4 RELATED ANTIBODIES, AND METHODS OF MAKING AND USING SAME” (PATRYS LIMITED, priority 2008, published 2009)
Read-outs that look alike come from different tables or passages of the source.

Experiments:
Test in all cases: MTT cell proliferation assay (Table 2)
Type in all cases: cell-based, human
BxPC-3 = system: BxPC-3
Procedure: (§1) BARB4 was also evaluated for inhibition of proliferation of other cancer cell lines, including BxPC-3, COLO 205, H460, MDA-MB-231 and MIAPaCa-2 cells, as well as HT-29, HCT-116, BxPC-3, PANC-1, A549, PC-3 and HCT116 cells. In brief, various human cancer cell lines obtained from the American Type Culture Collection (ATCC) were established using standard in vitro culture methods and ATCC recommended media in 175 cm2 BD tissue culture treated flasks. In particular, MDAMB-231 cultures were incubated in a humidified 37° C., 100% air incubator, and BxPC-3, COLO 205, H460 and MIAPaCa-2 cultures were incubated in a humidified 37° C., 5% CO2, 95% air incubator. Cultures were sub-cultivated regularly to maintain log phase growth. All cell lines were brought up from cryopreservation using the original recommended ATCC media type and supplements. Cell line specific seeding densities were based on historical data from MIR Preclinical Services for growth over a 72 hr period.
(§2) On the day of IC50 plate seeding, the adherent cells were removed from the flasks for each cell line using trypsin EDTA, 1× (Cell Gro #25-053-CI). Trypsin was deactivated using complete media and the cells were pooled (each line done separately). The pooled cells in complete media were counted using trypan blue exclusion with a Neubauer Bright-Line® hemacytometer. The percent viability for each cell line was as follows:
(§3) Based on live cell counts, each suspension was then diluted in complete media (containing required supplements) to achieve the desired seeding density for each cell line. Once seeded, the cells were allowed to attach to the plates overnight and then treated with BA4 or cisplatin 24 hr post-seeding.
(§4) BARB4 was serially diluted 1:2 (2× final conc. in dilution reservoir=1600 μg/ml) in media to achieve a final 800 μg/ml starting concentration in the top dosage wells of the treatment plate by diluting 1:2 when transferred from the reservoir to the treatment plate. Antibody was added to columns 1 through 10 of the treatment plate. Column 11 was for cells+media only control and column 12 was for a media only blank. Cisplatin (positive control) was manufactured by Sigma (# M4394, lot 087K1349) and supplied as a fine, dark yellow powder, in an amber vial, stored at room temperature and housed in a covered box to prevent exposure to light. Cisplatin was previously dissolved in 0.9% saline to make a clear, colorless 4 mM stock solution, aliquoted and frozen at −20° C. Frozen aliquots were quickly thawed by holding the tubes in hand, placed on wet ice and diluted (2× conc. dilution reservoir) to achieve a final 1 mM starting concentration in the top dosage wells of the treatment plate (diluted 1:2 when transferred from the dilution reservoir to the treatment plate). Serial dilutions of 1:4 were made from wells 1 through 10 of the dilution reservoir prior to transfer to the treatment plate.
(§5) The BARB4 stock solution (10.5 mg/ml) was prepared by dilution in complete media according to the table below for a final starting treatment concentration of 800 μg/ml. The 4 mM stock solution of cisplatin in 0.9% saline was diluted in complete media for a final starting treatment concentration of 1 mM.
(§6) Cells were exposed to BARB4 or cisplatin for a 24 hr period. The plates were incubated overnight at 37° C. At 24 hr and 48 hr post-treatment, the MTT assay was performed as described below.
(§7) The anti-proliferative activity of BARB4 and cisplatin was evaluated using the MTT cell proliferation assay (ATCC catalog #30-1010K). The assay is based on the reduction of yellow tetrazolium MTT (3-(4,5-dimethylthiazolyl-2)-2,5-diphenyltetrazolium bromide) by metabolically active cells forming purple formazan crystals. […]

COLO 205 = system: COLO 205
Procedure: as §1, §2, §3, §4, §5, §6, §7

H460 = system: H460
Procedure: as §1, §2, §3, §4, §5, §6, §7

MDA-MB-231 = system: MDA-MB-231
Procedure: as §1, §2, §3, §4, §5, §6, §7

MIAPaCa-2 = system: MIAPaCa-2
Procedure: as §1, §2, §3, §4, §5, §6, §7

[1] = MTT 24 hr post-treatment, read-out: IC50, Cisplatin (24 hr)
[2] = MTT 48 hr post-treatment, read-out: IC50, Cisplatin (48 hr)

N.N.[Cl][Pt][Cl] [Cisplatin, reference compound]
IC50 (BxPC-3; BxPC-3, MTT 24 hr post-treatment, read-out: IC50, Cisplatin (24 hr)): 39.2 µM
IC50 (BxPC-3; BxPC-3, MTT 48 hr post-treatment, read-out: IC50, Cisplatin (48 hr)): 9.41 µM
IC50 (BxPC-3; BxPC-3 repeat, MTT 24 hr post-treatment, read-out: IC50, Cisplatin (24 hr)): 13.6 µM
IC50 (BxPC-3; BxPC-3 repeat, MTT 48 hr post-treatment, read-out: IC50, Cisplatin (48 hr)): 5.65 µM
IC50 (COLO 205; [1]): 58.5 µM
IC50 (COLO 205; [2]): 62.9 µM
IC50 (H460; [1]): 63.3 µM
IC50 (H460; [2]): 6.37 µM
IC50 (MDA-MB-231; [1]): 97.5 µM
IC50 (MDA-MB-231; [2]): 233 µM
IC50 (MIAPaCa-2; [1]): 43.9 µM
IC50 (MIAPaCa-2; [2]): 29.8 µM
